Data on 1 compound can be found in patent publication US20160120848A1, “SPECIFIC CANCER TREATMENT REGIMES WITH GANETESPIB” (SYNTA PHARMACEUTICALS CORP., priority 2013, published 2016).

For series [1], the system named is complex between Hsp90 and mutant p53. Briefly: Preclinical study of Hsp90 inhibition by ganetespib in mutant p53 cells. It is filed as cell-based.
Series [2] concerns triple-negative breast cancer. Briefly: Phase 3 study of ganetespib in combination with docetaxel. It is filed as in vivo, patients. The note with it: ganetespib 150 mg/m^2 in combination with docetaxel 75 mg/m^2. An excerpt: This is an open-label, multicenter, randomized Phase 3 study of patients with triple-negative breast cancer (TNBC). Eligible patients are previously untreated for their advanced or metastatic disease and have measurable disease as defined by Response Evaluation Criteria in Solid Tumors (RECIST). Patients are randomized in a 1:1 ratio to receive either ganetespib in combination with docetaxel or docetaxel alone. The study compares the efficacy and tolerability of ganetespib in combination with docetaxel versus docetaxel alone.
The study enrolls approximately 300 patients over a planned 30-month period, and patients are randomized into one of two treatment arms:
Arm A (combination arm): Ganetespib 150 mg/m^2 in combination with docetaxel 75 mg/m^2. On Day 1 of each 3-week treatment cycle, ganetespib and docetaxel are administered as separate 1-hour intravenous infusions. Administration of ganetespib precedes the administration of docetaxel. There is a 1-hour “rest” period following the end of the ganetespib infusion prior to docetaxel infusion. Ganetespib 150 mg/m^2 is administered again on Day 15 of each cycle […]
Clinical and laboratory parameters are assessed to evaluate disease status and toxicity in all patients. […] The post-dose ECG is recorded within approximately 60 minutes after the end of the ganetespib infusion or as soon as feasible. […]

In series [3] the test system is cancers with genetic profiles driven by strong Hsp90 clients. Briefly: Earlier clinical results for ganetespib, monotherapy and with taxanes. It is filed as in vivo. An excerpt: The clinical study aims to achieve this goal by using ganetespib to target what may be a central driver of ovarian cancer aggressiveness and metastatic ability, namely mutant p53.
In series [4] the test system is advanced solid tumor malignancies. Briefly: Phase I study of ganetespib monotherapy in advanced solid tumor malignancies. It is filed as in vivo, patients. The note with it: ganetespib monotherapy 75 or 150 mg/m^2, Days 1 and 15 of 3-week cycle. Here is the method: A total of 3 (three) cohorts are treated in this study. All patients are hospitalized for the duration of Cycle 1, Days 1 through 21.
In the first cohort (Cohort 1), patients with advanced solid tumor malignancies are treated with 75 mg/m^2 of ganetespib monotherapy. In the second cohort (Cohort 2), patients with advanced solid tumor malignancies are treated with 150 mg/m^2 of ganetespib monotherapy. In the third cohort (Cohort 3), patients with advanced NSCLC are treated with ganetespib (150 mg/m^2) in combination with docetaxel (75 mg/m^2). In the case of intolerability of the third cohort's combination regimen, in a fourth cohort (Cohort 4), patients with advanced NSCLC are treated with ganetespib (150 mg/m^2) in combination with docetaxel (60 mg/m^2).
Each cohort enrolls 3 to 6 patients, depending on toxicity and the inclusion of Cohort 4. A total of 9 patients are enrolled at the recommended combination dose level to better characterize the safety and PK profiles. Each cohort consists of a maximum of 6 evaluable patients, except for the recommended combination dose level, which enrolls a total of 9 patients. Patients who discontinue from the study for reasons other than DLT (dose-limiting toxicity) before completing Cycle 1 are replaced. For all cohorts, patients are hospitalized for the duration of Cycle 1, Days 1 through 21. […]

Setting [5] is: combination of ganetespib and taxanes.

With `CC(C)c1cc(-c2n[nH]c(=O)n2-c2ccc3c(ccn3C)c2)c(O)cc1O` [ganetespib], in series [1], the anti-cancer activity entry is “potent anti-cancer activity”; the “anti-cancer activity in cells with mutant p53 compared with other cells” value is listed as “substantially stronger in cells with mutant p53”; the “effect on complex between Hsp90 and mutant p53” value is “destroyed the complex between Hsp90 and mutant p53”; the “effect on mutant p53 protein” value is reported as “inducing the degradation of mutant p53”. Moreover, the “sensitization of mutant p53 cancer cells to treatment with chemotherapies” value in series [1] (inhibition of Hsp90) is reported as “strongly sensitize”. For the same compound, in series [2], the efficacy entry is “efficacious” and the safety profile result is listed as “good safety profile”. Moreover, in series [3] (setting [5]), the activity entry is on record as “favorable” and the safety profile result was “favorable”. Further, the tumor responses entry in series [3] (ganetespib monotherapy, cancers with genetic profiles driven by strong Hsp90 clients) is given as “durable objective tumor responses”. Besides, in series [4], the efficacy result is on record as “efficacious” and the safety profile result is “good safety profile”.
